Among the data in patent US11731986B2 (Sanford Burnham Prebys Medical Discovery Institute, priority 2017, dated 2023) are IC50 values, retold here.

Bounds are passed on as bounds.

The target in the test is T1, human LMPTP-A (Homo sapiens, UniProt P24666).
T1 sequence (P24666 1-158): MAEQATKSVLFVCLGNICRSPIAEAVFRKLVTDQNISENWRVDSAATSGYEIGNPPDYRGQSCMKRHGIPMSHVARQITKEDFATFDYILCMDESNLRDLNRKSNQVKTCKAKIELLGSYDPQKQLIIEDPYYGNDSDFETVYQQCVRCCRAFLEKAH
Description: Enzyme Assay of Inhibition of LMPTP-A (phosphatase assay, OMFP or pNPP substrate). It is filed as biochemical. The settings on record: Bis-Tris pH 6.0, 37° C. The method, then: Phosphatase assays were performed in buffer containing 50 mM Bis-Tris, pH 6.0, 1 mM DTT and 0.01% Triton X-100 at 37° C. For assays conducted with 3-O-methylfluorescein phosphate (OMFP) as substrate, fluorescence was monitored continuously at λex=485 and λem=525 nm. For assays conducted with para-nitrophenylphosphate (pNPP) as substrate, the reaction was stopped by addition of 2× reaction volume of 1 M NaOH, and absorbance was measured at 405 nm. IC50 values of compounds of Formula (I), (II), (III), or (IV) were determined from plots of inhibitor concentration versus percentage of enzyme activity. For inhibitor selectivity assays, each PTP was incubated with either 0.4 mM OMFP or 5 mM pNPP in the presence of 40 μM compound or DMSO. […] For the inhibitor reversibility assay, 50 nM human LMPTP-A was pre-incubated with 10 μM of compound of Formula (I), (II), (III), or (IV) or DMSO for 5 min. The enzyme was diluted 100× in phosphatase assay buffer containing 0.4 mM OMFP and fluorescence was measured at the indicated time points.
By IC50 is commonly meant the concentration at which inhibition is half-maximal. In the case of `CNc1cc(-c2ccc3[nH]c(C(=O)NCCCN4CCCCC4)nc3c2)nc2ccncc12` [5-(4-(methylamino)-1,6-naphthyridin-2-yl)-N-(3-(piperidin-1-yl)propyl)-1H-benzo[d]imidazole-2-carboxamide], the IC50 is 1000 to 20000 nM. For `CCN(CC)C(=O)c1ccc(-c2cc(NCCCN3CCCCC3)c3ncccc3n2)cc1` [N,N-diethyl-4-(4-(3-(piperidin-1-yl)propylamino)-1,5-naphthyridin-2-yl)benzamide] the value was at least 20000 nM; for `CN1CCN(CCCNC(=O)c2cc3cc(-c4cc(NCCCN5CCCCC5)c5cnccc5n4)ccc3n2C)CC1` [1-methyl-N-(3-(4-methylpiperazin-1-yl)propyl)-5-(4-((3-(piperidin-1-yl)propyl)amino)-1,6-naphthyridin-2-yl)-1H-indole-2-carboxamide], at most 1000 nM; for `CN(C)CCNC(=O)c1cc2ccc(-c3cc(NCCCN4CCCCC4)c4cnccc4n3)cc2s1` [N-(2-(dimethylamino)ethyl)-6-(4-(3-(piperidin-1-yl)propylamino)-1,6-naphthyridin-2-yl)benzo[b]thiophene-2-carboxamide], 1000 to 20000 nM.

As to `CCN(CC)C(=O)c1ccc(-c2cc(NCCN(C)C)c3cnccc3n2)cc1` [4-(4-((2-(Dimethylamino)ethyl)amino)-1,6-naphthyridin-2-yl)-N,N-diethylbenzamide], the concentration for half-maximal inhibition (IC50) was 1000 to 20000 nM. On to `CN1CCC(NC(=O)c2cc3cc(-c4cc(NCCCN5CCCCC5)c5cnccc5n4)ccc3n2C)CC1` [1-methyl-N-(1-methylpiperidin-4-yl)-5-(4-((3-(piperidin-1-yl)propyl)amino)-1,6-naphthyridin-2-yl)-1H-indole-2-carboxamide], for which the IC50 is at most 1000 nM. The figure for `CCN1CCC(CNC(=O)CCOc2ccc(-c3cc(NCCCN4CCCCC4)c4cnccc4n3)cc2)CC1` [N-((1-ethylpiperidin-4-yl)methyl)-3-(4-(4-((3-(piperidin-1-yl)propyl)amino)-1,6-naphthyridin-2-yl)phenoxy)propanamide] is at least 20000 nM. For `CCCNc1cc(-c2ccc3c(c2)cc(C(=O)NC2CCN(C)CC2)n3C)nc2ccncc12` [1-methyl-N-(1-methylpiperidin-4-yl)-5-(4-(propylamino)-1,6-naphthyridin-2-yl)-1H-indole-2-carboxamide] the value was at most 1000 nM; for `CCN1CCN(C(=O)c2cc3ccc(-c4cc(NCCCN5CCCCC5)c5cnccc5n4)cc3[nH]2)CC1` [(4-Ethylpiperazin-1-yl)(6-(4-(3-(piperidin-1-yl)propylamino)-1,6-naphthyridin-2-yl)-1H-indol-2-yl)methanone], at most 1000 nM. Consider `CCNc1cc(-c2ccc3c(c2)cc(C(=O)NC2CCN(C)CC2)n3C)nc2ccncc12` [5-(4-(ethylamino)-1,6-naphthyridin-2-yl)-1-methyl-N-(1-methylpiperidin-4-yl)-1H-indole-2-carboxamide], for which the IC50 is at most 1000 nM. Regarding `CN1CCC(NC(=O)COc2ccc(-c3cc(NCCCN4CCCCC4)c4cnccc4n3)cc2)CC1` [N-(1-methylpiperidin-4-yl)-2-(4-(4-(3-(piperidin-1-yl)propylamino)-1,6-naphthyridin-2-yl)phenoxy)acetamide], the 50% inhibitory concentration (IC50) is at least 20000 nM. For `O=C(NCCc1ccncc1)c1cc2ccc(-c3cc(NCCCN4CCCCC4)c4cnccc4n3)cc2[nH]1` the value was at most 1000 nM. For `O=C(NC1CCNCC1)c1nc2cc(-c3cc(NCCCN4CCCCC4)c4cnccc4n3)ccc2[nH]1` [5-(4-((3-(piperidin-1-yl)propyl)amino)-1,6-naphthyridin-2-yl)-N-(piperidin-4-yl)-1H-benzo[d]imidazole-2-carboxamide] the value was at most 1000 nM; for `O=C(c1cc2ccc(-c3cc(NCCCN4CCCCC4)c4cnccc4n3)cc2s1)N1CCNCC1` [Piperazin-1-yl(6-(4-(3-(piperidin-1-yl)propylamino)-1,6-naphthyridin-2-yl)benzo[b]thiophen-2-yl)methanone], at most 1000 nM; for `O=C(COCc1ccc(-c2cc(NCCCN3CCCCC3)c3cnccc3n2)cc1)NCCCN1CCCCC1` [N-(3-(piperidin-1-yl)propyl)-2-((4-(4-((3-(piperidin-1-yl)propyl)amino)-1,6-naphthyridin-2-yl)benzyl)oxy)acetamide], 1000 to 20000 nM. For `CN1CCC(Nc2cc(-c3ccc4c(c3)cc(C(=O)N3CCN(C)CC3)n4C)nc3ccncc23)CC1` [(1-Methyl-5-(4-((1-methylpiperidin-4-yl)amino)-1,6-naphthyridin-2-yl)-1H-indol-2-yl)(4-methylpiperazin-1-yl)methanone] the value was at most 1000 nM; for `O=C(O)/C=C/c1ccc(-c2cc(NCCCN3CCCCC3)c3cnccc3n2)s1` [(E)-3-(5-(4-(3-(Piperidin-1-yl)propylamino)-1,6-naphthyridin-2-yl)thiophen-2-yl)acrylic acid], 1000 to 20000 nM; for `O=C(/C=C/c1ccc(-c2cc(NCCCN3CCCCC3)c3cnccc3n2)cc1)NCCCN1CCCCC1` [(E)-N-(3-(Piperidin-1-yl)propyl)-3-(4-(4-(3-(piperidin-1-yl)propylamino)-1,6-naphthyridin-2-yl)phenyl)acrylamide], at most 1000 nM. Molecule `CCN(CC)C(=O)CNC(=O)CCc1ccc(-c2cc(NCCCN3CCCCC3)c3cnccc3n2)cc1` yielded an IC50 of at most 1000 nM. The figure for `CCN(CC)C(=O)c1ccc(-c2cc(NCCN3CCN(C)CC3)c3cnccc3n2)cc1` [N,N-diethyl-4-(4-(2-(4-methylpiperazin-1-yl)ethylamino)-1,6-naphthyridin-2-yl)benzamide] is 1000 to 20000 nM; for `CN1CCC(CNC(=O)c2cc3cc(-c4cc(NCc5ccc(CN6CCCCC6)cc5)c5cnccc5n4)ccc3n2C)CC1` [1-methyl-N-((1-methylpiperidin-4-yl)methyl)-5-(4-(4-(piperidin-1-ylmethyl)benzylamino)-1,6-naphthyridin-2-yl)-1H-indole-2-carboxamide] it is at most 1000 nM; for `O=C(NC1CCNCC1)c1ccc(-c2cc(NCCCN3CCCCC3)c3cnccc3n2)cc1` [4-(4-((3-(piperidin-1-yl)propyl)amino)-1,6-naphthyridin-2-yl)-N-(piperidin-4-yl)benzamide] it is at most 1000 nM. For `CCN(CC)C(=O)c1nc2ccc(-c3cc(NCCCN4CCCCC4)c4cnccc4n3)cc2s1` [N,N-Diethyl-6-(4-(3-(piperidin-1-yl)propylamino)-1,6-naphthyridin-2-yl)benzo[d]thiazole-2-carboxamide] the value was 1000 to 20000 nM. For `O=C(NCCc1ccncc1)c1nc2cc(-c3cc(NCCCN4CCCCC4)c4cnccc4n3)ccc2[nH]1` [5-(4-((3-(piperidin-1-yl)propyl)amino)-1,6-naphthyridin-2-yl)-N-(2-(pyridin-4-yl)ethyl)-1H-benzo[d]imidazole-2-carboxamide] the value was at most 1000 nM.

In turn, `O=C(c1nc2ccc(-c3cc(NCCCN4CCCCC4)c4cnccc4n3)cc2s1)N1CCNCC1` [Piperazin-1-yl(6-(4-(3-(piperidin-1-yl)propylamino)-1,6-naphthyridin-2-yl)benzo[d]thiazol-2-yl)methanone] displayed a half-maximal inhibitory concentration (IC50) of 1000 to 20000 nM. On to `CCN(CC)C(=O)c1ccc(-c2cc(NCCCN3CCCCC3)c3cnccc3n2)c(C#N)c1` [3-cyano-N,N-diethyl-4-(4-((3-(piperidin-1-yl)propyl)amino)-1,6-naphthyridin-2-yl)benzamide], for which the IC50 lay in the range of 1000 to 20000 nM.

Take `O=C(NCCCN1CCCCC1)c1cc2ccc(-c3cc(NCCCN4CCCCC4)c4cnccc4n3)cc2[nH]1` [N-(3-(Piperidin-1-yl)propyl)-6-(4-(3-(piperidin-1-yl)propylamino)-1,6-naphthyridin-2-yl)-1H-indole-2-carboxamide]: the IC50 was in the range of 1000 to 20000 nM. The figure for `CCN(CC)C(=O)c1ccc(-c2cc(NCCCN3CCCCC3)c3cncc(C)c3n2)cc1` [N,N-Diethyl-4-(8-methyl-4-((3-(piperidin-1-yl)propyl)amino)-1,6-naphthyridin-2-yl)benzamide] is at least 20000 nM; for `Cn1c(C(=O)NCCc2ccncc2)cc2cc(-c3cc(NCCCN4CCCCC4)c4cnccc4n3)ccc21` [1-methyl-5-(4-((3-(piperidin-1-yl)propyl)amino)-1,6-naphthyridin-2-yl)-N-(2-(pyridin-4-yl)ethyl)-1H-indole-2-carboxamide] it is at most 1000 nM. For `CN1CCC(Nc2cc(-c3ccc(C(=O)NCCCN4CCCCC4)cc3)nc3ccncc23)C1` (stereo not drawn) [4-(4-((1-Methylpyrrolidin-3-yl)amino)-1,6-naphthyridin-2-yl)-N-(3-(piperidin-1-yl)propyl)benzamide] the value was 1000 to 20000 nM. For `O=C(NCCc1ccncc1)c1ccc(-c2cc(NCCCN3CCCCC3)c3cnccc3n2)cc1` [4-(4-((3-(piperidin-1-yl)propyl)amino)-1,6-naphthyridin-2-yl)-N-(2-(pyridin-4-yl)ethyl)benzamide] the value was at most 1000 nM; for `CCN(CC)C(=O)c1ccc(-c2cc(NCCCN3CCNCC3)c3cnccc3n2)cc1` [N,N-Diethyl-4-(4-((3-(piperazin-1-yl)propyl)amino)-1,6-naphthyridin-2-yl)benzamide], 1000 to 20000 nM; for `CN1CCCN(CCNC(=O)CCc2ccc(-c3cc(NCCCN4CCCCC4)c4cnccc4n3)cc2)CC1` [N-(2-(4-Methyl-1,4-diazepan-1-yl)ethyl)-3-(4-(4-(3-(piperidin-1-yl)propylamino)-1,6-naphthyridin-2-yl)phenyl)propanamide], at most 1000 nM.
